Experiments:
[1] = Stability of dimethylchlorourea aqueous solutions at different pH and temperature by UV-Vis Spectroscopy; assay type: physicochemical
Source text: The stability of dimethylchlorourea was also examined under a variety of different conditions including pH and temperature. […] In the following table the initial concentration C0, the final concentration Cf, the final time tf and the half life t½, are given.

[2] = tested on: Pseudomonas aeruginosa; assay: Log10 reduction of viable P. aeruginosa in PBS after exposure to biocide (Example 8); assay type: cell-based; details: average of three
Experimental: The efficacy of dimethyl monochlorourea (DMCU) as a biocide, as synthesized in Example 5, was tested against the bacterium Pseudomonas aeruginosa. The Hach DPD chlorine test (Hach Company, Loveland, Colo.) was used to measure the total available chlorine concentrations of each biocide tested. Concentrations are reported in units of milligrams per liter as Cl2. P. aeruginosa was grown overnight in Trypticase Soy Broth at 37° C. The culture was split into aliquots of equal volume and suspended in physiologically buffered saline (PBS). […] The cultures were then evaluated by measuring viable cell counts after exposure to the biocides.

[3] = Stability in the presence of chlorine demand (0.1× nutrient broth), total chlorine by Hach DPD; assay type: physicochemical; details: 0.1× nutrient broth, initial 5 ppm chlorine, 37° C.
Experimental: This can be seen in Table 4 below. 20 mL aliquots of a 0.1× nutrient broth were used and the active species added such that the initial concentration of each was equivalent to 5 ppm chlorine as measured by the Hach. To prepare the nutrient broth Difco Nutrient Broth (8 grams) was dissolved in 1 L of deionized water, and subsequently diluted to 0.1× of the initial concentration prior to being autoclaved at 121° C. for 15 minutes. 100 mL solutions of each of the actives were made, and the concentration was measured using standard Hach test procedures on a BetzDearborn DR 2010 Spectrophotometer. At each time point a 1:10 dilution of the solution in DI water was made and placed in the spectrophotometer cell. Hach Permachem DPD Total Chlorine Reagent was added and the cell was placed into the spectrophotometer. The ppm of Cl2 was measured at 0, 1, 3, 6, 24, and 48 hours. A fresh dilution was made at each time point, if necessary, and the bottles of solution were placed in a shaking incubator at 37° C. in between runs. Dimethyl monochlorourea is notated as DMCU. Bis-hydroxymethyl chlorourea is BHMCU.

[4] = Free vs. total chlorine (Hach DPD) of 1000 ppm solutions in synthetic hard water; assay type: physicochemical; details: synthetic hard water 250 ppm hardness, 35° C.
Experimental: Differences exist between monochlorourea and sodium hypochlorite, namely, sodium hypochlorite is a free chlorine generating biocide while monochlorourea is not. Free and total chlorine are measured using the DPD reagents from the Hach Company. The test is a colorimetric test in which more intense color development results as more oxidizing chlorine is present in the sample. The rate at which the dye reacts with the oxidizing chemical depends on whether the chlorine is free or bound. Total chlorine includes both free and bound chlorine.
The rate at which the dye reacts with total chlorine is accelerated by the addition of iodide to the test. This differentiates the free and total chlorine. The iodide reacts rapidly with bound oxidizing chlorine to form iodine and chloride. The iodine, a free oxidizing halogen, reacts very rapidly with the DPD dye.
One thousand ppm (as total Cl2) solutions of monochlorourea and sodium hypochlorite were prepared in synthetic hard water with 250 ppm hardness. Total and free chlorine readings were taken at 0 minutes, 30 minutes, 2 hours, and 4 hours. Untreated hard water solutions were used as blanks. The samples were stored at 35° C.+/−2° C. with mild stirring. pH values are provided as a reference points for the conditions of the chlorine species at the various test times.
Table 3 compares duplicate samples of sodium hypochlorite and monochlorourea. Significant differences exist between the free and total chlorine values of these chemicals. The release of free chlorine from monochlorourea is an energetically unfavorable reaction. Monochlorourea is a combined chlorine species that functions to kill bacteria not as a donor of free chlorine, but as a biocide itself.
Made-up 1 Liter sample of synthetic hard water with 250 ppm hardness.
Took 100 mL aliquots and set up duplicate samples of biocides at least 1,000 ppm based on total Chlorine readings.
Monitored pH, free chlorine and total chlorines at timed intervals of—0 min, 30 min, 2 hours, and 4 hours,
Monitored un-treated (blank) hard water at time 0 to serve as baseline.
Between sampling stored all samples in 35° C.+/−2° C. Heater/shaker with mild stirring.

[5] = tested on: Pseudomonas aeruginosa; assay: Viable cell counts of P. aeruginosa in PBS after 60 minutes exposure to biocide (Example 6); assay type: cell-based; details: average of three
Experimental: The efficacy of monochlorourea as a biocide, as synthesized in Example 1, was tested against the bacterium Pseudomonas aeruginosa. The Hach DPD chlorine test (Hach Company, Loveland, Colo.) was used to measure the total available chlorine concentrations of each biocide tested. Concentrations are reported in units of milligrams per liter as Cl2. P. aeruginosa was grown overnight in Trypticase Soy Broth at 37° C. The culture was split into aliquots of equal volume, suspended in physiologically buffered saline (PBS). In this example, the cultures were exposed to […], 5.0 mg/L, 10.0 mg/L, and 15.0 mg/L of biocide for 60 minutes. The cultures were then evaluated by measuring viable cell counts after exposure to the biocides.

[6] = tested on: P. aeruginosa; assay: Viability of P. aeruginosa inoculated in paper mill process water, plated after 60 minutes; assay type: cell-based, Pseudomonas aeruginosa; details: papermill process water, average of three
Experimental: Paper mill process water samples were collected from a paper mill producing super calendered paper Samples were inoculated with P. aeruginosa, and then dosed with monochlorourea and sodium hypochlorite and plated after 60 minutes.

[7] = Time = 30 min, listed as Bleach-1
[8] = Time = 30 min, listed as Bleach-2
[9] = Time = 2 hours, listed as Bleach-1
[10] = Time = 2 hours, listed as Bleach-2
[11] = Time = 4 hours, listed as Bleach-1
[12] = Time = 4 hours, listed as Bleach-2

CNC(=O)N(C)Cl [DMCU, N-chloro-N,N′-dimethylurea]
half life t½ ([1]; 50 ° C., pH 3): 4 days | final concentration Cf ([1]; 50 ° C., pH 3, C0 575 ppm, tf 1 Days): 491 ppm | half life t½ ([1]; 50 ° C., pH 5): 82 days | final concentration Cf ([1]; 50 ° C., pH 5, C0 576 ppm, tf 3 Days): 561 ppm | half life t½ ([1]; 50 ° C., pH 12): 0.417 days | final concentration Cf ([1]; 50 ° C., pH 12, C0 478 ppm, tf 6 Hours): 315 ppm | half life t½ ([1]; 75 ° C., pH 3): 0.75 days | final concentration Cf ([1]; 75 ° C., pH 3, C0 576 ppm, tf 24 Hours): 231 ppm | half life t½ ([1]; 75 ° C., pH 7): 14 days | final concentration Cf ([1]; 75 ° C., pH 7, C0 590 ppm, tf 1 Days): 562 ppm | half life t½ ([1]; 75 ° C., pH 12): 0.17 days | final concentration Cf ([1]; 75 ° C., pH 12, C0 423 ppm, tf 24 Hours): 4 ppm | half life t½ ([1]; RT, pH 2): 41 days | final concentration Cf ([1]; RT, pH 2, C0 393 ppm, tf 34 Days): 220 ppm | half life t½ ([1]; RT, pH 3): 54 days | final concentration Cf ([1]; RT, pH 3, C0 577 ppm, tf 28 Days): 402 ppm | half life t½ ([1]; RT, pH 5): 84 days | final concentration Cf ([1]; RT, pH 5, C0 603 ppm, tf 34 Days): 456 ppm | half life t½ ([1]; RT, pH 7): 104 days | final concentration Cf ([1]; RT, pH 7, C0 590 ppm, tf 33 Days): 474 ppm | half life t½ ([1]; RT, pH 9): 106 days | final concentration Cf ([1]; RT, pH 9, C0 589 ppm, tf 33 Days): 475 ppm | half life t½ ([1]; RT, pH 12): 2 days | final concentration Cf ([1]; RT, pH 12, C0 423 ppm, tf 1 Days): 280 ppm | half-life ([1]; aqueous solution, acidic and basic conditions at room temperature, read-out: half lives): 2 to 100 days | log10 reduction of viable cfu/mL (LR) ([2]; 0.3 mg/L): 0.45 log10 | log10 reduction of viable cfu/mL (LR) ([2]; 0.9 mg/L): 1.49 log10 | log10 reduction of viable cfu/mL (LR) ([2]; 1.5 mg/L): 3.99 log10

NCl [monochloramine]
Stability: total chlorine remaining relative to initial ([3]; 0 hr): 100% | Stability: total chlorine remaining relative to initial ([3]; 3 hrs): 24% | Stability: total chlorine remaining relative to initial ([3]; 6 hrs): 6% | Stability: total chlorine remaining relative to initial ([3]; 24 hrs): 2% | Stability: total chlorine remaining relative to initial ([3]; 48 hrs): 1%

[Na+].[O-]Cl [NaOCl, Sodium Hypochlorite]
Free Cl ([4]; Time = 0, listed as Bleach-1): 900 ppm | Tot Cl ([4]; Time = 0, listed as Bleach-1): 950 ppm | Free Cl ([4]; Time = 0, listed as Bleach-2): 950 ppm | Tot Cl ([4]; Time = 0, listed as Bleach-2): 1060 ppm | Free Cl [4, 7]: 860 ppm | Tot Cl [4, 7]: 890 ppm | Free Cl [4, 8]: 880 ppm | Tot Cl [4, 8]: 1020 ppm | Free Cl [4, 9]: 810 ppm | Tot Cl [4, 9]: 920 ppm | Free Cl [4, 10]: 840 ppm | Tot Cl [4, 10]: 1010 ppm | Free Cl [4, 11]: 840 ppm | Tot Cl [4, 11]: 940 ppm | Free Cl [4, 12]: 950 ppm | Tot Cl [4, 12]: 1040 ppm | log10 of viable cfu/mL remaining after exposure ([5]; 5.0 mg/L as Cl2, 60 minutes): 9.7 log10 cfu/mL | log10 of viable cfu/mL remaining after exposure ([5]; 10.0 mg/L as Cl2, 60 minutes): 9.1 log10 cfu/mL | log10 of viable cfu/mL remaining after exposure ([5]; 15.0 mg/L as Cl2, 60 minutes): 4.4 log10 cfu/mL | Stability: total chlorine remaining relative to initial ([3]; 0 hr): 100% | Stability: total chlorine remaining relative to initial ([3]; 3 hrs): 22% | Stability: total chlorine remaining relative to initial ([3]; 6 hrs): 6% | Stability: total chlorine remaining relative to initial ([3]; 24 hrs): 2% | Stability: total chlorine remaining relative to initial ([3]; 48 hrs): 1% | log10 of viable cfu/mL ([6]; 1.0 mg/l): 9.9 log10 cfu/mL | log10 of viable cfu/mL ([6]; 3.0 mg/l): 9.8 log10 cfu/mL | log10 of viable cfu/mL ([6]; 5.0 mg/l): 8.7 log10 cfu/mL | log10 of viable cfu/mL ([6]; 10.0 mg/l): 4.5 log10 cfu/mL | log10 reduction of viable cfu/mL (LR) ([2]; 1 mg/L): 5.3 log10 | log10 reduction of viable cfu/mL (LR) ([2]; 3 mg/L): 5.4 log10 | log10 reduction of viable cfu/mL (LR) ([2]; 5 mg/L): 6.7 log10

Source: patent US8420012B2, “Use of monochlorourea to treat industrial waters” (Hercules Incorporated, priority 2009, dated 2013)
